Earlier results in patent US8026262B2, “Chemical compounds” (GlaxoSmithKline LLC, priority 2006, dated 2011).

How the values were obtained:
[1] = test system: ovariectomized (OVX) rats
[2] = test system: ORX rats

Compound	periosteal mineral apposition rate of the femur [1]	BMD of femoral cortical bone ([1]; 2 month period)	biomechanical strength of femoral cortical bone ([1]; 2 month period)	bone mineral density (BMD) of femur ([2]; 4 weeks, as markedly as DHT)	levator ani muscle weight ([2]; 4 weeks, as markedly as DHT)	prostate weight ([2]; versus eugonadal rats, at any doses tested)
CN(C)[C@H]1C[C@@H](C(C)(C)CO)Nc2ccc([N+](=O)[O-])cc21 [Example S-40503]	increase	significantly increased	significantly increased	increased	increased	not elevated
estrogen			did not			
